For this data set the following is noted: Pendant drop shape.

Values joined by “and” are separate entries in the source; they are usually repeats but may differ in a detail not shown here. Identical values can stand only once. Numbers after ± are expanded uncertainties.

Here are results for one compound from the NIST ThermoML archive (doi:10.1016/j.jct.2017.12.011).

As a reminder, the surface tension liquid-gas is the force per length acting along the surface. As for `O` [water], the surface tension liquid-gas was 76.43 ± 1.8 mN/m and 76.39 ± 1.9 mN/m (271.2 K); 75.74 ± 1.8 mN/m and 75.89 ± 1.5 mN/m (274.2 K); 75.11 ± 1.5 mN/m and 75.34 ± 1.9 mN/m (276.2 K); 74.61 ± 2 mN/m and 74.98 ± 1.9 mN/m (278.2 K); 74.5 ± 1.4 mN/m and 74.21 ± 1.3 mN/m (280.2 K).
